# Laboratory results from publication PMC10763615, “Identification and engineering of potent cyclic peptides with selective or promiscuous binding through biochemical profiling and bioinformatic data analysis” (RSC Chemical Biology, 2023).
# Where two headings read alike, the source gives them in different places. Positions of bridges follow the written chain, without caps; N, C: chain ends. Residues, ends and D or L forms follow the SMILES beside them.
# What was measured:
# Assay type in all cases: binding
# [1] = molecular target: T1, FGF-R4 ECD (Homo sapiens, UniProt P22455); test: single concentration BLI of crude peptides; conditions: read-out: KD (4)
# T1 construct: DNA constructs for the extracellular domain (ECD) of human FGF-; HPC4 (C); made in house; host or cells: HEK 293-6E
# T1 sequence (P22455 22-369 limits assumed): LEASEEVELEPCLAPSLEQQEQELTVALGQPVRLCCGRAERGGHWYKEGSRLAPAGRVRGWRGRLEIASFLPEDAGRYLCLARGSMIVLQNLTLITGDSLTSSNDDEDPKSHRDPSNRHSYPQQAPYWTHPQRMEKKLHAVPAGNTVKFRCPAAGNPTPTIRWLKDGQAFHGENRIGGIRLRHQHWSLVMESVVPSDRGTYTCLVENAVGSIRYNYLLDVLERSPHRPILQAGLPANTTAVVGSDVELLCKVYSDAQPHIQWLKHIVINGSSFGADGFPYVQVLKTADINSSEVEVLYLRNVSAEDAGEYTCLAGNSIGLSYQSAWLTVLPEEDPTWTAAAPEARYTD
# Summary of the method: (§1)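 Biotinylated FGF-R ECD on streptavidin biosensors was dipped into ~1 μM crude peptide in PBS pH7.4 with 0.05% Tween-20 and 0.01% BSA for association, then into buffer for dissociation, and followed by BLI. Fitted KD values were adjusted for peptide concentration measured by UPLC-CAD.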
# [2] = molecular target: T2, FGF-R1C ECD (Homo sapiens, UniProt P11362); test: biochemical; design: DNA constructs for the extracellular domain (ECD) of human FGF-; HPC4 (C); made in house; host or cells: HEK 293-6E
# T2 sequence (P11362 22-376 limits assumed): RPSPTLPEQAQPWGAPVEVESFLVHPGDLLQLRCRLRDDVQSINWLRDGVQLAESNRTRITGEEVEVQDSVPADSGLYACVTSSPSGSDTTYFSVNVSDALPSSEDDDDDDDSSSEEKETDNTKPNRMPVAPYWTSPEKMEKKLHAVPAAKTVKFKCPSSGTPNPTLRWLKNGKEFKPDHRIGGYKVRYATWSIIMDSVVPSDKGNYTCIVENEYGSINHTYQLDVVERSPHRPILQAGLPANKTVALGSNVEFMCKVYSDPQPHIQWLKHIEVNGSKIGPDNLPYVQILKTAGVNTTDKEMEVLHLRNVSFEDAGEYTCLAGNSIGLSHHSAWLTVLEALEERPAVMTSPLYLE
# Summary of the method: as §1
# [3] = molecular target: T3, FGF-R3C ECD (Homo sapiens, UniProt P22607); test: biochemical; design: DNA constructs for the extracellular domain (ECD) of human FGF-; HPC4 (C); made in house; host or cells: HEK 293-6E
# T3 sequence (P22607 23-375 limits assumed): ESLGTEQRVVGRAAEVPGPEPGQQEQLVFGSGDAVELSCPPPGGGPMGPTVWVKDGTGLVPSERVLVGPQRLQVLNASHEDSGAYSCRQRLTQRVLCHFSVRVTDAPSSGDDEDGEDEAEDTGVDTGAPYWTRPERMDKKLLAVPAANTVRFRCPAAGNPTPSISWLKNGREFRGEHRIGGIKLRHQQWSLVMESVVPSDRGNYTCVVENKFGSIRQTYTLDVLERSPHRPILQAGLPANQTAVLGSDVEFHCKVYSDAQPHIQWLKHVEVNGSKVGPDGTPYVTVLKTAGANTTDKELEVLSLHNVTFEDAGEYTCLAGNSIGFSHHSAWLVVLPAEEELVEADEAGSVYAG
# Summary of the method: as §1
# [4] = crude T18 selection 1 (1:1:1) peptides, single concentration BLI (Table S4)
# [5] = crude NNK peptides, single concentration BLI (Table S3)
SMILES,"Kd [1, 4] [µM]",Kd [2] [µM],Kd [3] [µM],"Kd [1, 5] [µM]"
CSCC[C@H](NC(C)=O)C(=O)N[C@H]1CSSC[C@@H](C(=O)NCC(=O)N[C@@H](CO)C(=O)NCC(=O)N[C@@H](CO)C(=O)N[C@@H](CCC(=O)O)C(=O)N[C@@H](CCC(=O)O)C(=O)NCC(=O)N[C@@H](CO)C(=O)NCC(=O)N[C@@H](CO)C(=O)N[C@@H](CC(=O)O)C(=O)N[C@@H](Cc2ccc(O)cc2)C(=O)N[C@@H](CCCCN)C(=O)N[C@@H](CC(=O)O)C(=O)N[C@@H](CC(=O)O)C(=O)N[C@@H](CC(=O)O)C(=O)N[C@@H](CC(=O)O)C(=O)N[C@@H](CCCCN)C(N)=O)NC(=O)[C@H](CCCCN)NC(=O)[C@H](CCCCN)NC(=O)[C@H](CCC(N)=O)NC(=O)[C@H](Cc2ccc(O)cc2)NC(=O)[C@H](CCCCN)NC(=O)[C@H](Cc2ccc(O)cc2)NC(=O)[C@H](Cc2c[nH]c3ccccc23)NC(=O)[C@H](CC(C)C)NC(=O)[C@H](C(C)C)NC(=O)[C@H]([C@@H](C)O)NC(=O)[C@H](Cc2ccc(O)cc2)NC1=O (Ac-MCYTVLWYKYQKKCGSGSEEGSGSDYKDDDDK-NH2; disulfide 2-14),0.001,> 10,> 10,–
CSCC[C@H](NC(C)=O)C(=O)N[C@H]1CSSC[C@@H](C(=O)NCC(=O)N[C@@H](CO)C(=O)NCC(=O)N[C@@H](CO)C(=O)N[C@@H](CC(=O)O)C(=O)N[C@@H](Cc2ccc(O)cc2)C(=O)N[C@@H](CCCCN)C(=O)N[C@@H](CC(=O)O)C(=O)N[C@@H](CC(=O)O)C(=O)N[C@@H](CC(=O)O)C(=O)N[C@@H](CC(=O)O)C(=O)N[C@@H](CCCCN)C(N)=O)NC(=O)[C@H](Cc2ccc(O)cc2)NC(=O)[C@H](C(C)C)NC(=O)[C@H](CC(C)C)NC(=O)[C@H](C(C)C)NC(=O)[C@H](CCCCN)NC(=O)[C@H](CC(N)=O)NC(=O)[C@H](CC(C)C)NC(=O)[C@H](Cc2ccccc2)NC(=O)[C@H](CC(N)=O)NC(=O)[C@H](Cc2ccc(O)cc2)NC(=O)[C@H](Cc2ccc(O)cc2)NC1=O (Ac-MCYYNFLNKVLVYCGSGSDYKDDDDK-NH2; disulfide 2-14),0.008,> 10,> 10,–
CSCC[C@H](NC(C)=O)C(=O)N[C@@H](CCSC)C(=O)N[C@@H](CO)C(=O)N[C@@H](Cc1c[nH]cn1)C(=O)N[C@H]1CSSC[C@@H](C(=O)NCC(=O)N[C@@H](CO)C(=O)NCC(=O)N[C@@H](CO)C(=O)N[C@@H](CC(=O)O)C(=O)N[C@@H](Cc2ccc(O)cc2)C(=O)N[C@@H](CCCCN)C(=O)N[C@@H](CC(=O)O)C(=O)N[C@@H](CC(=O)O)C(=O)N[C@@H](CC(=O)O)C(=O)N[C@@H](CC(=O)O)C(=O)N[C@@H](CCCCN)C(N)=O)NC(=O)[C@H](CC(C)C)NC(=O)[C@H](CC(C)C)NC(=O)[C@H](C(C)C)NC(=O)[C@H](CCCCN)NC(=O)[C@H](Cc2ccccc2)NC(=O)[C@H](CC(C)C)NC(=O)[C@H](Cc2c[nH]c3ccccc23)NC1=O (Ac-MMSHCWLFKVLLCGSGSDYKDDDDK-NH2; disulfide 5-13),–,> 10,> 10,0.239
CC[C@H](C)[C@@H]1NC(=O)[C@H](Cc2ccc(O)cc2)NC(=O)[C@H](C)NC(=O)[C@H](CC(C)C)NC(=O)[C@H](Cc2c[nH]c3ccccc23)NC(=O)[C@@H](NC(=O)[C@H](CCCCN)NC(=O)[C@@H](NC(=O)[C@H](CCSC)NC(=O)[C@H](CCSC)NC(C)=O)C(C)C)CSSC[C@@H](C(=O)NCC(=O)N[C@@H](CO)C(=O)NCC(=O)N[C@@H](CO)C(=O)N[C@@H](CC(=O)O)C(=O)N[C@@H](Cc2ccc(O)cc2)C(=O)N[C@@H](CCCCN)C(=O)N[C@@H](CC(=O)O)C(=O)N[C@@H](CC(=O)O)C(=O)N[C@@H](CC(=O)O)C(=O)N[C@@H](CC(=O)O)C(=O)N[C@@H](CCCCN)C(N)=O)NC(=O)[C@H]([C@@H](C)O)NC(=O)[C@H](CCCNC(=N)N)NC1=O (Ac-MMVKCWLAYIRTCGSGSDYKDDDDK-NH2; disulfide 5-13),–,> 10,> 10,> 10
CC[C@H](C)[C@@H]1NC(=O)[C@H](Cc2ccccc2)NC(=O)[C@@H]2CCCN2C(=O)[C@H](CC(C)C)NC(=O)[C@H](Cc2ccccc2)NC(=O)[C@H](CC(C)C)NC(=O)[C@H](CC(=O)O)NC(=O)[C@H](Cc2ccccc2)NC(=O)[C@H]([C@@H](C)O)NC(=O)[C@@H](NC(=O)[C@@H](N)CCSC)CSSC[C@@H](C(=O)NCC(=O)N[C@@H](CO)C(=O)NCC(=O)N[C@@H](CO)C(=O)N[C@@H](CC(=O)O)C(=O)N[C@@H](Cc2ccc(O)cc2)C(=O)N[C@@H](CCCCN)C(=O)N[C@@H](CC(=O)O)C(=O)N[C@@H](CC(=O)O)C(=O)N[C@@H](CC(=O)O)C(=O)N[C@@H](CC(=O)O)C(=O)N[C@@H](CCCCN)C(N)=O)NC(=O)[C@H](Cc2ccccc2)NC1=O (H-MCTFDLFLPFIFCGSGSDYKDDDDK-NH2; disulfide 2-13),–,> 10,0.177,> 10
CC[C@H](C)[C@@H]1NC(=O)[C@H](Cc2ccccc2)NC(=O)[C@@H]2CCCN2C(=O)[C@H](Cc2ccccc2)NC(=O)[C@H](Cc2c[nH]cn2)NC(=O)[C@H]([C@@H](C)O)NC(=O)[C@H](CC(=O)O)NC(=O)[C@H](Cc2ccccc2)NC(=O)[C@H]([C@@H](C)O)NC(=O)[C@@H](NC(=O)[C@@H](N)CCSC)CSSC[C@@H](C(=O)NCC(=O)N[C@@H](CO)C(=O)NCC(=O)N[C@@H](CO)C(=O)N[C@@H](CC(=O)O)C(=O)N[C@@H](Cc2ccc(O)cc2)C(=O)N[C@@H](CCCCN)C(=O)N[C@@H](CC(=O)O)C(=O)N[C@@H](CC(=O)O)C(=O)N[C@@H](CC(=O)O)C(=O)N[C@@H](CC(=O)O)C(=O)N[C@@H](CCCCN)C(N)=O)NC(=O)[C@H]([C@@H](C)O)NC1=O (H-MCTFDTHFPFITCGSGSDYKDDDDK-NH2; disulfide 2-13),–,> 10,0.287,> 10
CC[C@H](C)[C@@H]1NC(=O)[C@@H]2CCCN2C(=O)[C@H](CC(C)C)NC(=O)[C@@H]2CCCN2C(=O)[C@H](Cc2c[nH]c3ccccc23)NC(=O)[C@@H]2CCCN2C(=O)[C@H](Cc2ccccc2)NC(=O)[C@H](CCCCN)NC(=O)[C@H]([C@@H](C)O)NC(=O)[C@@H](NC(=O)[C@@H](N)CCSC)CSSC[C@@H](C(=O)NCC(=O)N[C@@H](CO)C(=O)NCC(=O)N[C@@H](CO)C(=O)N[C@@H](CC(=O)O)C(=O)N[C@@H](Cc2ccc(O)cc2)C(=O)N[C@@H](CCCCN)C(=O)N[C@@H](CC(=O)O)C(=O)N[C@@H](CC(=O)O)C(=O)N[C@@H](CC(=O)O)C(=O)N[C@@H](CC(=O)O)C(=O)N[C@@H](CCCCN)C(N)=O)NC(=O)[C@H](C)NC(=O)[C@H](Cc2c[nH]c3ccccc23)NC(=O)[C@H](Cc2ccccc2)NC1=O (H-MCTKFPWPLPIFWACGSGSDYKDDDDK-NH2; disulfide 2-15),–,0.545,> 10,0.346
CSCC[C@H](N)C(=O)N[C@H]1CSSC[C@@H](C(=O)NCC(=O)N[C@@H](CO)C(=O)NCC(=O)N[C@@H](CO)C(=O)N[C@@H](CC(=O)O)C(=O)N[C@@H](Cc2ccc(O)cc2)C(=O)N[C@@H](CCCCN)C(=O)N[C@@H](CC(=O)O)C(=O)N[C@@H](CC(=O)O)C(=O)N[C@@H](CC(=O)O)C(=O)N[C@@H](CC(=O)O)C(=O)N[C@@H](CCCCN)C(N)=O)NC(=O)[C@H](CC(C)C)NC(=O)[C@H](C(C)C)NC(=O)[C@H](Cc2ccccc2)NC(=O)[C@@H]2CCCN2C(=O)[C@H](CC(C)C)NC(=O)[C@H](Cc2ccccc2)NC(=O)[C@H](CO)NC(=O)[C@H](CC(=O)O)NC(=O)[C@H](Cc2ccccc2)NC(=O)[C@H](C(C)C)NC1=O (H-MCVFDSFLPFVLCGSGSDYKDDDDK-NH2; disulfide 2-13),–,> 10,0.06,> 10
